System: AK lesions on the dorsal forearm
Assay: Phase 1 study KX01-AK-01-US: AK lesion counts and clearance
Type: in vivo, human
Method: KX-01 was administered topically on treatment days. […] Standardized photography of the treatment area was performed.

`O=C(Cc1ccc(-c2ccc(OCCN3CCOCC3)cc2)cn1)NCc1ccccc1` [KX-01] was tested, and the “Complete Clearance on Day 45 (100% reduction in AK lesions vs Baseline), n/N (%)” value (Cohort 2: 2 mg/100 cm^2 QD x3 days) was 0/10, the “AK lesion count, median (min, max)” value (Day 1 (Baseline), Cohort 1: 0.5 mg/25 cm^2 QD x3 days) was 5.0 (4, 5) and the “AK lesion count, median (min, max)” value (Day 1 (Baseline), Cohort 2: 2 mg/100 cm^2 QD x3 days) was 11.5 (8, 16). The “AK lesion count, median (min, max)” value (Day 1 (Baseline), Cohort 3: 0.5 mg/25 cm^2 QD x5 days) was 6.0 (5, 6), the “AK lesion count, median (min, max)” value (Day 1 (Baseline), Cohort 4: 2 mg/100 cm^2 QD x5 days) was 11.0 (10, 16) and the “AK lesion count, median (min, max)” value (Day 4, Cohort 1: 0.5 mg/25 cm^2 QD x3 days) was 5.0 (4, 5). For the same molecule, the “AK lesion count, median (min, max)” value (Day 4, Cohort 2: 2 mg/100 cm^2 QD x3 days) was 9.0 (6, 16), the “AK lesion count, median (min, max)” value (Day 10, Cohort 1: 0.5 mg/25 cm^2 QD x3 days) was 5.0 (4, 5) and the “AK lesion count, median (min, max)” value (Day 10, Cohort 2: 2 mg/100 cm^2 QD x3 days) was 7.0 (6, 11). For the same molecule, the “AK lesion count, median (min, max)” value (Day 10, Cohort 3: 0.5 mg/25 cm^2 QD x5 days) was 5.0 (5, 6), the “AK lesion count, median (min, max)” value (Day 10, Cohort 4: 2 mg/100 cm^2 QD x5 days) was 10.0 (10, 10) and the “AK lesion count, median (min, max)” value (Day 17, Cohort 1: 0.5 mg/25 cm^2 QD x3 days) was 4.5 (3, 5). For the same molecule, the “AK lesion count, median (min, max)” value (Day 17, Cohort 2: 2 mg/100 cm^2 QD x3 days) was 7.0 (5, 15), the “AK lesion count, median (min, max)” value (Day 17, Cohort 3: 0.5 mg/25 cm^2 QD x5 days) was 5.0 (4, 6) and the “AK lesion count, median (min, max)” value (Day 17, Cohort 4: 2 mg/100 cm^2 QD x5 days) was 10.0 (10, 11). For the same molecule, the “AK lesion count, median (min, max)” value (Day 31, Cohort 1: 0.5 mg/25 cm^2 QD x3 days) was 3.5 (1, 5), the “AK lesion count, median (min, max)” value (Day 31, Cohort 2: 2 mg/100 cm^2 QD x3 days) was 7.0 (1, 15) and the “AK lesion count, median (min, max)” value (Day 31, Cohort 3: 0.5 mg/25 cm^2 QD x5 days) was 1.0 (0, 6). For the same molecule, the “AK lesion count, median (min, max)” value (Day 31, Cohort 4: 2 mg/100 cm^2 QD x5 days) was 6.0 (0, 11), the “AK lesion count, median (min, max)” value (Day 45, Cohort 1: 0.5 mg/25 cm^2 QD x3 days) was 2.5 (0, 4) and the “AK lesion count, median (min, max)” value (Day 45, Cohort 2: 2 mg/100 cm^2 QD x3 days) was 4.0 (1, 10). The “AK lesion count, median (min, max)” value (Day 45, Cohort 3: 0.5 mg/25 cm^2 QD x5 days) was 0.5 (0, 4), the “AK lesion count, median (min, max)” value (Day 45, Cohort 4: 2 mg/100 cm^2 QD x5 days) was 4.5 (0, 12) and the “Change in AK lesion counts over time” value (all 4 cohorts) was “reductions in mean baseline AK lesion counts over time”. For the same molecule, the “Activity of 5-day versus 3-day regimen” value (rates of complete and partial clearance) was 5-day regimen may provide better activity than the 3-day regimen.

— patent US10617693B2, “Methods of treating and/or preventing actinic keratosis” (Athenex, Inc., priority 2017, dated 2020)
